Data as given in patent EP3964221A1, “ANTIVIRAL AGENTS” (priority 2020, dated 2022).
Read-outs that look alike come from different tables or passages of the source.

Legend:
Herpes simplex = settings: added to the assays after infection; cited from earlier work
[1] = system: Rhinovirus (RV, subtype 14); assay: Virucidal (preventive) approach, pretreatment of cell-free virus, plaque forming units; assay type: cell-based; settings: positive control at 0.3%; 2 and 24 h incubation
[2] = system: Adenovirus C (AV, subtype 5); assay type: cell-based; settings: positive control at 0.3%
[3] = system: Influenza A virus (Flu A, H1N1); assay: Virucidal (preventive) approach, pretreatment of cell-free virus, plaque forming units; assay type: cell-based; settings: positive control at 0.3%; 2 and 24 h incubation
[4] = system: Respiratory Syncytial Virus (RSV, type long strain); assay: as above; assay type: cell-based; settings: positive control at 0.3%; 2 and 24 h incubation
[5] = system: Influenza A virus (Flu A, H1N1); assay: Curative approach, plaque reduction assay; assay type: cell-based
[6] = system: Rhinovirus (RV, subtype 14); assay: Curative approach, plaque reduction assay; assay type: cell-based; settings: active control at concentrations between 5-50 µg mL^-1
[7] = system: Respiratory Syncytial Virus (RSV, type long strain); assay: Curative approach, plaque reduction assay; assay type: cell-based; settings: active control at concentrations between 5-50 µg mL^-1

C=C(C)[C@H]1CC=C(C)CC1 [limonene]
reduction of Herpes simplex induced plaques (Herpes simplex): 10-20%

Nc1nc2c(ncn2COCCO)c(=O)[nH]1 [acyclovir]
reduction of Herpes simplex induced plaques (Herpes simplex): 100%

CC12CCC(CC1)C(C)(C)O2 [1,8-cineol]
reduction of Herpes simplex induced plaques (Herpes simplex): 30-40%

C=C1CCC2CC1C2(C)C (stereo not drawn) [β-pinene]
reduction of Herpes simplex induced plaques (Herpes simplex): 10-20%

CCCCCCCCCCCCOS(=O)(=O)[O-].[Na+] [SDS, Sodium dodecyl sulfate]
lowered infectivity [1]: 56-100%
lowered infectivity ([2]; 2 h incubation): 52%
lowered infectivity ([2]; 24 h incubation): 63%
lowered infectivity [3]: 56-100%
lowered infectivity [4]: 56-100%

NC(=O)c1ncn([C@@H]2O[C@H](CO)[C@@H](O)[C@H]2O)n1 [Ribavirin, ribavirin]
plaque formation (visual, Fig. 3) ([5]; active control): prevented plaque formation almost completely
inhibited plaque formation ([5]; active control at concentrations between 5-50 µg mL^-1): 70-96%
inhibited plaque formation [6]: 70-96%
inhibited plaque formation [7]: 70-96%

CC1=CCC2CC1C2(C)C (stereo not drawn) [α-pinene]
reduction of Herpes simplex induced plaques (Herpes simplex): 30-40%
